Here are results for 20 compounds from patent US11208400B2, “Substituted 6-(1H-pyrazol-1-yl)pyrimidin-4-amine derivatives and uses thereof” (Bayer Aktiengesellschaft, priority 2016, dated 2021).

The assay concerns the target T1, human Npt2a (Homo sapiens, UniProt Q06495).
T1 construct: expressed in transfected cells
T1 sequence (Q06495 1-639): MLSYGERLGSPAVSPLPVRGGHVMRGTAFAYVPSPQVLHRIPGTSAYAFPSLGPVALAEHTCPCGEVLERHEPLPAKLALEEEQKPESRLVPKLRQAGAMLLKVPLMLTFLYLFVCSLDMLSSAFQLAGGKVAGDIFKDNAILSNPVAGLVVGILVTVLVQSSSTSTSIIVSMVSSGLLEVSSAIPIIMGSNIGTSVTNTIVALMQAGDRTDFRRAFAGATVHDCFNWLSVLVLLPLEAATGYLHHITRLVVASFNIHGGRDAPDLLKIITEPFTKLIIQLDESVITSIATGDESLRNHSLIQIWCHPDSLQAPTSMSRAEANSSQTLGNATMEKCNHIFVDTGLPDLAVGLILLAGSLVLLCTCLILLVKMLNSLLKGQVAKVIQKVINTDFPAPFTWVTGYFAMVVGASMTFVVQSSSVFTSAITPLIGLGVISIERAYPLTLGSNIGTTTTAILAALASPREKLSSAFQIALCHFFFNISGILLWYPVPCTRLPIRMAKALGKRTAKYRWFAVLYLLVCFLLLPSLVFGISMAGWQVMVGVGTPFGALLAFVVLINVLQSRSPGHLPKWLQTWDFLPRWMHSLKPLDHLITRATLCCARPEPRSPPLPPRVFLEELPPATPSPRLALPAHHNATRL
Briefly: Npt2a activity cell based assay, membrane potential dye, CHO T-REx hNpt2a cells. The settings on record: doxycycline-induced, depolarization by sodium phosphate influx, average or median values if tested more than once. In short, it runs like this: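 Cells were doxycycline-induced CHO T-REx hNpt2a, dye-loaded and pretreated 5 min at RT with 1 nM–50 μM compound in Na-free pH 7.4 buffer. IC50 was fit to the post/pre-trigger fluorescence ratio.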
The compound `Cc1cc(C)n(-c2cc(Nc3c(C)c(-c4ccc(C5CN(C(=O)OC(C)(C)C)C5)cc4)nn3C)ncn2)n1` [Example 323, tert-butyl 3-[4-(5-{[6-(3,5-dimethyl-1H-pyrazol-1-yl)pyrimidin-4-yl]amino}-1,4-dimethyl-1H-pyrazol-3-yl)phenyl]azetidine-1-carboxylate] returned an IC50 of 0.66 µM. That is a sub-micromolar value.

As for `Cc1nn(-c2cc(Nc3c(C)c(-c4ccc(C#N)cc4)nn3CC3CC3)ncn2)c(C)c1C(C)(C)O` [Example 165, 4-[1-(cyclopropylmethyl)-5-({6-[4-(2-hydroxypropan-2-yl)-3,5-dimethyl-1H-pyrazol-1-yl]pyrimidin-4-yl}amino)-4-methyl-1H-pyrazol-3-yl]benzonitrile], the IC50 was 0.003 µM.

With `Cc1c(-c2ccc(F)cc2)nn(CC2CC2)c1Nc1cc(-n2nc3c(c2C)C(C)(O)CC3)ncn1` (single isomer, unassigned) [Example 516, 2-(6-{[1-(cyclopropylmethyl)-3-(4-fluorophenyl)-4-methyl-1H-pyrazol-5-yl]amino}pyrimidin-4-yl)-3,4-dimethyl-2,4,5,6-tetrahydrocyclopenta[c]pyrazol-4-ol], the concentration for half-maximal inhibition (IC50) was found to be 0.031 µM. This IC50 is about 10-fold higher than that of the compound before. The compound `Cc1c(-c2ccc(F)cc2)nn(CC2CC2)c1Nc1cc(-n2[nH]c3c(c2=O)CCCC3)ncn1` [Example 416, 2-(6-{[1-(cyclopropylmethyl)-3-(4-fluorophenyl)-4-methyl-1H-pyrazol-5-yl]amino}pyrimidin-4-yl)-1,2,4,5,6,7-hexahydro-3H-indazol-3-one] returned an IC50 of 1.15 µM.

Take `Cc1nn(-c2cc(Nc3nn(C)c(-c4ccc(F)cc4)c3C)ncn2)c(C)c1C(C)(C)O` [Example 109, 2-[1-(6-{[5-(4-fluorophenyl)-1,4-dimethyl-1H-pyrazol-3-yl]amino}pyrimidin-4-yl)-3 5-dimethyl-1H-pyrazol-4-yl]propan-2-ol]: 0.0503 µM corresponded to half-maximal inhibition (IC50). `CCCN1Cc2cn(-c3cc(Nc4c(C)c(-c5ccc(F)cc5)nn4CC4CC4)ncn3)nc2C1` [Example 523, N-[1-(cyclopropylmethyl)-3-(4-fluorophenyl)-4-methyl-1H-pyrazol-5-yl]-6-(5-propyl-5,6-dihydropyrrolo[3,4-c]pyrazol-2(4H)-yl)pyrimidin-4-amine]: the IC50 is 0.69 µM.

`Cc1nn(-c2cc(Nc3c(C)c(-c4ccc(F)cc4)nn3C)ncn2)c(C(F)F)c1Cl` [Example 139, 6-[4-chloro-5-(difluoromethyl)-3-methyl-1H-pyrazol-1-yl]-N-[3-(4-fluorophenyl)-1,4-dimethyl-1H-pyrazol-5-yl]pyrimidin-4-amine]: the IC50 came out at 0.13 µM. To `CCc1c(Nc2cc(-n3nc4ncccc4c3C)ncn2)nn(C)c1-c1ccc(F)cc1` [Example 167, N-[4-ethyl-5-(4-fluorophenyl)-1-methyl-1H-pyrazol-3-yl]-6-(3-methyl-2H-pyrazolo[3,4-b]pyridin-2-yl)pyrimidin-4-amine] belongs 0.55 µM; to `CCOC(=O)c1c(C)nn(-c2cc(Nc3n[nH]c(-c4ccccc4)c3Cl)ncn2)c1C` [Example 51, ethyl 1-{6-[(4-chloro-5-phenyl-1H-pyrazol-3-yl)amino]pyrimidin-4-yl}-3,5-dimethyl-1H-pyrazole-4-carboxylate], 0.1 µM; to `Cc1nn(-c2cc(Nc3nn(CC(F)F)c(-c4ccc(F)cc4)c3Cl)ncn2)c(C)c1Cl` [Example 130, N-[4-chloro-1-(2,2-difluoroethyl)-5-(4-fluorophenyl)-1H-pyrazol-3-yl]-6-(4-chloro-3,5-dimethyl-1H-pyrazol-1-yl)pyrimidin-4-amine], 0.028 µM. The figure for `COc1c(-c2ccc(C#N)cc2)nn(CC2CC2)c1Nc1cc(-n2nc(C)c(C(C)OC)c2C)ncn1` (racemic) [Example 333, (±)-4-{1-(cyclopropylmethyl)-4-methoxy-5-[(6-{4-[1-methoxyethyl]-3,5-dimethyl-1H-pyrazol-1-yl}pyrimidin-4-yl)amino]-1H-pyrazol-3-yl}benzonitrile] is 0.054 µM; for `Cc1cc(C(F)F)n(-c2cc(Nc3nn(C)c(-c4ccc(C(F)(F)F)nc4)c3C)ncn2)n1` [Example 552, 6-[5-(difluoromethyl)-3-methyl-1H-pyrazol-1-yl]-N-{1,4-dimethyl-5-[6-(trifluoromethyl)pyridin-3-yl]-1H-pyrazol-3-yl}pyrimidin-4-amine] it is 0.015 µM; for `CCOC(=O)c1c(C)nn(-c2cc(Nc3c(OC)c(-c4ccc(F)cc4)nn3CC3CC3)ncn2)c1C` [Example 319, ethyl 1-(6-{[1-(cyclopropylmethyl)-3-(4-fluorophenyl)-4-methoxy-1H-pyrazol-5-yl]amino}pyrimidin-4-yl)-3,5-dimethyl-1H-pyrazole-4-carboxylate] it is 0.082 µM.

On to `CCc1c(-c2ccc(C#N)cc2)nn(CC2CC2)c1Nc1cc(-n2nc(C)c(Cl)c2C(F)F)ncn1` [Example 164, 4-[5-({6-[4-chloro-5-(difluoromethyl)-3-methyl-1H-pyrazol-1-yl]pyrimidin-4-yl}amino)-1-(cyclopropylmethyl)-4-ethyl-1H-pyrazol-3-yl]benzonitrile], for which it took 0.011 µM to reach half-maximal inhibition (IC50). To `CCc1c(-c2ccc(F)cc2)nn(CC2CC2)c1Nc1cc(-n2nc(C)c(-c3nnc(C)o3)c2C)ncn1` [Example 225, N-[1-(cyclopropylmethyl)-4-ethyl-3-(4-fluorophenyl)-1H-pyrazol-5-yl]-6-[3,5-dimethyl-4-(5-methyl-1,3,4-oxadiazol-2-yl)-1H-pyrazol-1-yl]pyrimidin-4-amine] belongs 0.008 µM; to `CCOC(=O)c1c(C)nn(-c2cc(Nc3c(C)c(-c4ccc(F)cc4F)nn3C)ncn2)c1C` [Example 363, ethyl 1-(6-{[3-(2,4-difluorophenyl)-1,4-dimethyl-1H-pyrazol-5-yl]amino}pyrimidin-4-yl)-3,5-dimethyl-1H-pyrazole-4-carboxylate], 0.15 µM; to `CCc1c(Nc2cc(-n3nc(C)c(CC(C)(C)O)c3C)ncn2)nn(C)c1-c1ccc(F)cc1` [Example 238, 1-[1-(6-{[4-ethyl-5-(4-fluorophenyl)-1-methyl-1H-pyrazol-3-yl]amino}pyrimidin-4-yl)-3,5-dimethyl-1H-pyrazol-4-yl]-2-methylpropan-2-ol], 0.083 µM. The figure for `COCCn1nc(-c2ccc(C(F)F)cc2)c(C)c1Nc1cc(-n2nc(C)c(Cl)c2C)ncn1` [Example 537, 6-(4-chloro-3,5-dimethyl-1H-pyrazol-1-yl)-N-{3-[4-(difluoromethyl)phenyl]-1-(2-methoxyethyl)-4-methyl-1H-pyrazol-5-yl}pyrimidin-4-amine] is 0.026 µM; for `CCOC(=O)c1c(C)nn(-c2cc(Nc3nn(C)c(-c4ccc(F)cc4)c3C)ncn2)c1C` [Example 61, ethyl 1-(6-{[5-(4-fluorophenyl)-1,4-dimethyl-1H-pyrazol-3-yl]amino}pyrimidin-4-yl)-3,5-dimethyl-1H-pyrazole-4-carboxylate] it is 0.0044 µM. Turning to `Cc1nn(-c2cc(Nc3c(C)c(-c4ccc(F)cc4)nn3CC3CC3)ncn2)c(C)c1[S+](C)[O-]` (centres unmarked) [Example 401, N-[1-(cyclopropylmethyl)-3-(4-fluorophenyl)-4-methyl-1H-pyrazol-5-yl]-6-[3,5-dimethyl-4-(methylsulfinyl)-1H-pyrazol-1-yl]pyrimidin-4-amine], the concentration for half-maximal inhibition (IC50) turned out to be 1.4 µM. This IC50 lies about 320-fold higher than the previous one.
